Experimental data as given in paper PMC10518717, “High-Throughput Screening and Proteomic Characterization of Compounds Targeting Myeloid-Derived Suppressor Cells” (Molecular & Cellular Proteomics : MCP, 2023).

Experiments:
Acyp1 = target: T1, Acyp1 (Mus musculus, UniProt P56376); assay: Solvent-induced protein precipitation profiling; assay type: binding; settings: 7.8 μM and 26 μM; relative to compound 3 at 10 μM
T1 construct: We treated NUP-MDSC cell lysate with compound 2; endogenous in cells; host or cells: mouse NUP-MDSC (lysate)
T1 sequence (P56376 1-99): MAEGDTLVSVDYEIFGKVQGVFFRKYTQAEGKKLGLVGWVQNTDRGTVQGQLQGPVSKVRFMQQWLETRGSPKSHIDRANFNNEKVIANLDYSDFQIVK
Experimental: (§1) NUP-MDSCs were differentiated as described above, washed twice with PBS, resuspended in lysis buffer (PBS, 0.4% IGEPAL CA-630, 1× Halt Protease-Inhibitor Cocktail (Thermo Fisher Scientific)), and subjected to three freeze-thaw cycles. The lysate was cleared by centrifugation for 30 min at 18,000g and 4 °C. The soluble fraction was diluted to 4 mg/ml and allowed to warm up to room temperature. Equal volumes of lysate were treated in triplicates with 100 x compound stock solutions (in DMSO) or DMSO for 15 min at room temperature (final concentrations: cmpd 2: 7.8 μM (3xEC50) and 26 μM (10xEC50), cmpd 3: 10 μM and 26 μM). […]
(§2) Peptides were analyzed via LC-MS/MS on a Vanquish Neo UHPLC coupled to an Orbitrap Eclipse Tribrid mass spectrometer (Thermo Fisher Scientific). […] Samples were measured, employing a MS3 method with real-time search. […] To obtain quantitative information on TMT reporter ions, each peptide precursor was fragmented again as for MS2 analysis followed by synchronous selection of the up to 10 most intense peptide fragments in the iontrap ([37]) and further fragmentation via HCD using an NCE of 55%. […] The MS3 scan was recorded in the OT at 30,000 resolution (scan range 110–500 m/z, isolation window of 0.7 m/z, AGC of 2e4 charges, maxIT of 120 ms). […]

Cd74 = target: T2, Cd74 (Mus musculus, UniProt P04441); assay: Solvent-induced protein precipitation profiling; assay type: binding; settings: 7.8 μM and 26 μM; relative to compound 3 at 10 μM
T2 construct: We treated NUP-MDSC cell lysate with compound 2; endogenous in cells; host or cells: mouse NUP-MDSC (lysate)
T2 sequence (P04441 1-279): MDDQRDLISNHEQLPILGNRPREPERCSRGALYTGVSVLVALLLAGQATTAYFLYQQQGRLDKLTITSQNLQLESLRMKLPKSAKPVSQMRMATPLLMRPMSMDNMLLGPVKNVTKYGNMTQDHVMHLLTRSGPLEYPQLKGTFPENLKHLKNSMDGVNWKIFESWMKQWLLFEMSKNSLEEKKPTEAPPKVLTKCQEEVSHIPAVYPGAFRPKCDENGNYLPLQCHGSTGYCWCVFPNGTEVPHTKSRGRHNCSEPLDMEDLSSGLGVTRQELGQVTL
Experimental: as §1, §2

A594 cells = assay: CellROX-based detection of ROS levels; assay type: cell-based; settings: 48 h treatment (compound 2 7.8 μM, N-acetyl-cysteine 300 μM), then 200 μM tert-butyl hydroperoxide 2 h; compared to compound 3 10 μM
Experimental: A594 cells were maintained in Fluorobrite DMEM (Thermo Fisher Scientific) supplemented with GlutaMAX (Thermo Fisher Scientific) and 10% fetal bovine serum (PAN Biotech). Cells were seeded onto a 24-well microplate (Ibidi) and treated with DMSO, 7.8 μM compound 2 (3x EC50), 10 μM compound 3, or 300 μM N-acetyl-cysteine for 48 h. After the treatment, cells were incubated with 200 μM tert-butyl hydroperoxide (Sigma) for 2 h to stimulate ROS production. Then, cells were stained with CellROX deep red (Thermo Fisher Scientific) following the manufacturer’s guidelines. CellROX deep red signal was measured on a Leica DMI 6000 B epifluorescent microscope with a Cy5 filter set. Mean signal intensity per cell was determined from >100 cells per condition from three independent treatments.
For the CellROX assay, three independent treatments were conducted. From each, the mean signal intensity per cell was determined for >100 cells per condition. The statistical significance was calculated by one-way ANOVA followed by a post hoc Tukey’s multiple comparisons test using GraphPad Prism (v.8.3.0).

- stabilization against solvent-induced aggregation of Acyp1 (Acyp1): dose-dependent stabilization
- stabilization against solvent-induced aggregation of Cd74 (Cd74): dose-dependent stabilization
Compound: CCOC(=O)c1nnn(-c2nn3nnnc3c3ccccc23)c1C [compound 2]
- CellROX Deep Red fluorescence (amount of ROS in a cell) (A594 cells): decreased significantly
